Data published in patent US9765091B2, “Tetrahydropyrazolo [3,4-b] azepine derivatives and their use as allosteric modulators of metabotropic glutamate receptors” (Addex Pharma S.A., priority 2010, dated 2017).

Columns and labels:
[1] = target: T1, human mGluR4 (Homo sapiens, UniProt Q14833); assay: Fluorescent cell based Ca2+ mobilization assay (FLIPR) on HEK-293 cells expressing human mGluR4; settings: positive allosteric modulation, HEK-293 cells expressing hmGluR4, stimulated by EC25 glutamate; mean of at least three independent experiments in duplicate; read-out: Ca^2+ Flux* (mean EC50)
T1 construct: expressed in transfected cells
T1 sequence (Q14833 33-912): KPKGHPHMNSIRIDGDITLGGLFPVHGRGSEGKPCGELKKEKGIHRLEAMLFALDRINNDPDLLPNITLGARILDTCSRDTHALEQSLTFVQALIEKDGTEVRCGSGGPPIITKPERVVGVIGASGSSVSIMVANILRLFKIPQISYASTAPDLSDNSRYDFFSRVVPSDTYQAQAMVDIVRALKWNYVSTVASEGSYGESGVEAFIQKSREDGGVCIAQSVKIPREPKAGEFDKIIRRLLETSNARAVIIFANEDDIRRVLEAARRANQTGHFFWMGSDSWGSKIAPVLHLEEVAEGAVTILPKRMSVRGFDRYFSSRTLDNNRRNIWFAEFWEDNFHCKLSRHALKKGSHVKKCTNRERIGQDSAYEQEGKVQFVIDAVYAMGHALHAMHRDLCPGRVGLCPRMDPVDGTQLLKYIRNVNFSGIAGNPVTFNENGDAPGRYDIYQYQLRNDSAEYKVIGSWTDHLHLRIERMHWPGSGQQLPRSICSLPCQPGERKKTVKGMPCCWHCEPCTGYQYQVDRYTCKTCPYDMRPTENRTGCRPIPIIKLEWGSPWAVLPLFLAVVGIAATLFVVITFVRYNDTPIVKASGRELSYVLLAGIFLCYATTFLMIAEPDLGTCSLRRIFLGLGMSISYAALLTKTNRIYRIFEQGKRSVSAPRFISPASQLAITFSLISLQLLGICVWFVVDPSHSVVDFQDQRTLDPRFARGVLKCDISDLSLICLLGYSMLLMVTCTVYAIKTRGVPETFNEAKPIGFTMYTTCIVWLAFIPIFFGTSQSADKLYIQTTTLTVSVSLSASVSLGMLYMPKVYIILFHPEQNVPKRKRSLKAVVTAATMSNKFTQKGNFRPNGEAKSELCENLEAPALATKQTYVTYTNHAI
From the text: mGluR4 Assay on HEK-Expressing Human mGluR4
The compounds of the present invention are positive allosteric modulators of mGluR4 receptor. Their activity was examined on recombinant human mGluR4a receptors by detecting changes in intracellular Ca^2+ concentration, using the fluorescent Ca^2+-sensitive dye Fluo4-(AM) and a Fluorometric Imaging Plate Reader (FLIPR, Molecular Devices, Sunnyvale, Calif.).
The cDNA encoding the human metabotropic glutamate receptor (hmGluR4), (accession number NM_000841.1, NCBI Nucleotide database browser), was subcloned into an expression vector containing also the hygromycin resistance gene. In parallel, the cDNA encoding a G protein allowing redirection of the activation signal to intracellular calcium flux was subcloned into a different expression vector containing also the puromycin resistance gene. Transfection of both these vectors into HEK293 cells with PolyFect reagent (Qiagen) according to supplier's protocol, and hygromycin and puromycin treatment allowed selection of antibiotic resistant cells which had integrated stably one or more copies of the plasmids. Positive cellular clones expressing hmGluR4 were identified in a functional assay measuring changes in calcium fluxes in response to glutamate or selective known mGluR4 orthosteric agonists and antagonists. HEK-293 cells expressing hmGluR4 were maintained in media containing DMEM, dialyzed Fetal Calf Serum (10%), Glutamax™ (2 mM), Penicillin (100 units/mL), Streptomycin (100 μg/mL), Geneticin (100 μg/mL) and Hygromycin-B (40 μg/mL) and puromycin (1 μg/mL) at 37° C./5% CO2.
Human mGluR4 HEK-293 cells were plated out 24 hours prior to FLIPR^384 assay in black-walled, clear-bottomed, poly-L-ornithine-coated 384-well plates at a density of 25,000 cells/well in a glutamine/glutamate free DMEM medium containing foetal bovine serum (10%), penicillin (100 units/mL) and streptomycin (100 μg/mL) at 37° C./5% CO2.
On the day of the assay, the medium was aspirated and the cells were loaded with a 3 μM solution of Fluo4-AM (LuBioScience, Lucerne, Switzerland) in 0.03% pluronic acid. After 1 hour at 37° C./5% CO2, the non incorporated dye was removed by washing cell plate with the assay buffer and the cells were left in the dark at room temperature for […] before testing. All assays were performed in a pH 7.4 buffered-solution containing 20 mM HEPES, 143 mM NaCl, 6 mM KCl, 1 mM MgSO4, 1 mM CaCl2, 0.125 mM sulfapyrazone and 0.1% glucose.
After 10 s of basal fluorescence recording, various concentrations of the compounds of the invention were added to the cells. Changes in fluorescence levels were first monitored for 180 s in order to detect any agonist activity of the compounds. Then the cells were stimulated by an EC25 glutamate concentration for an additional 110 s in order to measure enhancing activities of the compounds of the invention. EC25 glutamate concentration is the concentration giving 25% of the maximal glutamate response.
The concentration-response curves of representative compounds of the present invention were generated using the Prism GraphPad software (Graph Pad Inc, San Diego, USA). The curves were fitted to a four-parameter logistic equation: (Y=Bottom+(Top−Bottom)/(1+10^((Log EC50−X)*Hill Slope) allowing the determination of EC50 values.
The Table 4 below represents the mean EC50 obtained from at least three independent experiments of selected molecules performed in duplicate.

EC50 [1] [nM] | melting point [°C] | Compound
< 100 | 292 | Cc1ccnc(Nc2nc3c(s2)CCN(C)c2n[nH]cc2-3)n1 [Compound 1-1, 6-Methyl-N-(4-methylpyrimidin-2-yl)-4,5,6,8-tetrahydropyrazolo[3,4-b]thiazolo[4,5-d]azepin-2-amine]
< 100 | 247 | Cc1ccnc(Nc2nc3c(s2)CCN(C(C)C)c2n[nH]cc2-3)n1 [Compound 1-5, 6-Isopropyl-N-(4-methylpyrimidin-2-yl)-4,5,6,8-tetrahydropyrazolo[3,4-b]thiazolo[4,5-d]azepin-2-amine]
< 100 | 291 | Cc1nc(Nc2nc3c(s2)CCN(C)c2n[nH]cc2-3)ns1 [Compound 1-8, 6-Methyl-N-(5-methyl-1,2,4-thiadiazol-3-yl)-4,5,6,8-tetrahydropyrazolo[3,4-b]thiazolo[4,5-d]azepin-2-amine]
< 100 | 233 | COCC(C)N1CCc2sc(Nc3nccc(C)n3)nc2-c2c[nH]nc21 (centres unmarked) [Compound 1-11, 6-(1-Methoxypropan-2-yl)-N-(4-methylpyrimidin-2-yl)-4,5,6,8-tetrahydropyrazolo[3,4-b]thiazolo[4,5-d]azepin-2-amine]
< 100 | 203 | COCCN1CCc2sc(Nc3cccc(F)n3)nc2-c2c[nH]nc21 [Compound 1-14, N-(6-Fluoropyridin-2-yl)-6-(2-methoxyethyl)-4,5,6,8-tetrahydropyrazolo[3,4-b]thiazolo[4,5-d]azepin-2-amine]
100 to 1000 | 218 | COCCN1CCc2sc(Nc3ccc(F)cn3)nc2-c2c[nH]nc21 [Compound 1-15, N-(5-Fluoropyridin-2-yl)-6-(2-methoxyethyl)-4,5,6,8-tetrahydropyrazolo[3,4-b]thiazolo[4,5-d]azepin-2-amine]
< 100 | 275 | Cc1noc(C)c1CN1CCc2sc(Nc3ncc(F)cn3)nc2-c2c[nH]nc21 [Compound 1-23, 6-((3,5-Dimethylisoxazol-4-yl)methyl)-N-(5-fluoropyrimidin-2-yl)-4,5,6,8-tetrahydropyrazolo[3,4-b]thiazolo[4,5-d]azepin-2-amine]
< 100 | 271 | CC(C)c1nc(CN2CCc3sc(Nc4ncc(F)cn4)nc3-c3c[nH]nc32)co1 [Compound 1-24, N-(5-Fluoropyrimidin-2-yl)-6-((2-isopropyloxazol-4-yl)methyl)-4,5,6,8-tetrahydropyrazolo[3,4-b]thiazolo[4,5-d]azepin-2-amine]
< 100 | 312 | Fc1cnc(Nc2nc3c(s2)CCNc2n[nH]cc2-3)nc1 [Compound 1-25, N-(5-Fluoropyrimidin-2-yl)-4,5,6,8-tetrahydropyrazolo[3,4-b]thiazolo[4,5-d]azepin-2-amine]
< 100 | 306 | CCN1CCc2sc(Nc3ncc(F)cn3)nc2-c2c[nH]nc21 [Compound 1-34, 6-Ethyl-N-(5-fluoropyrimidin-2-yl)-4,5,6,8-tetrahydropyrazolo[3,4-b]thiazolo[4,5-d]azepin-2-amine]
< 100 | 280 | Cc1cc(CN2CCc3sc(Nc4ncc(F)cn4)nc3-c3c[nH]nc32)on1 [Compound 1-35, N-(5-Fluoropyrimidin-2-yl)-6-((3-methylisoxazol-5-yl)methyl)-4,5,6,8-tetrahydropyrazolo[3,4-b]thiazolo[4,5-d]azepin-2-amine]
100 to 1000 | 285 | Cc1cccc(Nc2nc3c(s2)CCN(CC2CC2)c2n[nH]cc2-3)n1 [Compound 1-39, 6-(Cyclopropylmethyl)-N-(6-methylpyridin-2-yl)-4,5,6,8-tetrahydropyrazolo[3,4-b]thiazolo[4,5-d]azepin-2-amine]
100 to 1000 | 297 | Fc1cccc(Nc2nc3c(s2)CCN(CC2CC2)c2n[nH]cc2-3)n1 [Compound 1-40, 6-(Cyclopropylmethyl)-N-(6-fluoropyridin-2-yl)-4,5,6,8-tetrahydropyrazolo[3,4-b]thiazolo[4,5-d]azepin-2-amine]
< 100 | – | N#Cc1ccc(CN2CCc3sc(Nc4ncc(F)cn4)nc3-c3cn[nH]c32)cc1 [Compound 1-68, 4-((2-(5-Fluoropyrimidin-2-ylamino)-4,5-dihydropyrazolo[3,4-b]thiazolo[4,5-d]azepin-6(7H)-yl)methyl)benzonitrile]
100 to 1000 | – | Fc1cnc(Nc2nc3c(s2)CCN(Cc2ccc(C(F)(F)F)cc2)c2[nH]ncc2-3)nc1 [Compound 1-69, N-(5-Fluoropyrimidin-2-yl)-6-(4-(trifluoromethyl)benzyl)-4,5,6,7-tetrahydropyrazolo[3,4-b]thiazolo[4,5-d]azepin-2-amine]
100 to 1000 | – | Cc1cccc(CN2CCc3sc(Nc4ncc(F)cn4)nc3-c3cn[nH]c32)n1 [Compound 1-70, N-(5-Fluoropyrimidin-2-yl)-6-((6-methylpyridin-2-yl)methyl)-4,5,6,7-tetrahydropyrazolo[3,4-b]thiazolo[4,5-d]azepin-2-amine]
1000 to 10000 | – | Fc1cnc(Nc2nc3c(s2)CCN(CCc2ccccn2)c2[nH]ncc2-3)nc1 [Compound 1-71, N-(5-Fluoropyrimidin-2-yl)-6-(2-(pyridin-2-yl)ethyl)-4,5,6,7-tetrahydropyrazolo[3,4-b]thiazolo[4,5-d]azepin-2-amine]
< 100 | – | COc1ccc(CN2CCc3sc(Nc4ncc(F)cn4)nc3-c3cn[nH]c32)nc1 [Compound 1-77, N-(5-Fluoropyrimidin-2-yl)-6-((5-methoxypyridin-2-yl)methyl)-4,5,6,7-tetrahydropyrazolo[3,4-b]thiazolo[4,5-d]azepin-2-amine]
1000 to 10000 | – | Fc1cnc(Nc2nc3c(s2)CCN(CC2CCNCC2)c2[nH]ncc2-3)nc1 [Compound 1-78, N-(5-Fluoropyrimidin-2-yl)-6-(piperidin-4-ylmethyl)-4,5,6,7-tetrahydropyrazolo[3,4-b]thiazolo[4,5-d]azepin-2-amine]
100 to 1000 | – | Fc1cnc(Nc2nc3c(s2)CCN(Cc2ncc(Cl)s2)c2[nH]ncc2-3)nc1 [Compound 1-79, 6-((5-Chlorothiazol-2-yl)methyl)-N-(5-fluoropyrimidin-2-yl)-4,5,6,7-tetrahydropyrazolo[3,4-b]thiazolo[4,5-d]azepin-2-amine]
100 to 1000 | – | Cn1cnc(CN2CCc3sc(Nc4ncc(F)cn4)nc3-c3cn[nH]c32)c1 [Compound 1-80, N-(5-Fluoropyrimidin-2-yl)-6-((1-methyl-1H-imidazol-4-yl)methyl)-4,5,6,7-tetrahydropyrazolo[3,4-b]thiazolo[4,5-d]azepin-2-amine]
< 100 | – | CC(c1ccc(Cl)cn1)N1CCc2sc(Nc3ncc(F)cn3)nc2-c2cn[nH]c21 (centres unmarked) [Compound 1-81, 6-(1-(5-Chloropyridin-2-yl)ethyl)-N-(5-fluoropyrimidin-2-yl)-4,5,6,7-tetrahydropyrazolo[3,4-b]thiazolo[4,5-d]azepin-2-amine]
1000 to 10000 | – | Fc1cnc(Nc2nc3c(s2)CCN(C2CCC2)c2[nH]ncc2-3)nc1 [Compound 1-82, 6-Cyclobutyl-N-(5-fluoropyrimidin-2-yl)-4,5,6,7-tetrahydropyrazolo[3,4-b]thiazolo[4,5-d]azepin-2-amine]
100 to 1000 | – | COCCN1CCc2sc(Nc3cccc(CF)n3)nc2-c2cn[nH]c21 [Compound 1-83, N-(6-(Fluoromethyl)pyridin-2-yl)-6-(2-methoxyethyl)-4,5,6,7-tetrahydropyrazolo[3,4-b]thiazolo[4,5-d]azepin-2-amine]
100 to 1000 | – | COCCN1CC(C)c2sc(Nc3ncc(F)cn3)nc2-c2cn[nH]c21 (centres unmarked) [Compound 1-84, N-(5-Fluoropyrimidin-2-yl)-6-(2-methoxyethyl)-4-methyl-4,5,6,7-tetrahydropyrazolo[3,4-b]thiazolo[4,5-d]azepin-2-amine]
